“And” between values parts separate entries of the source, which are not always exact repeats. Equal values may be shown once.
Tests used:
Telomelysin (OBP-301) = assay: Real-time quantitative PCR, viral E1A copy number, Telomelysin in H1299 cells; type: cell-based, adenovirus; details: for E1A copy number, % (relative to 0 μM) / E1A copy number/ng DNA: Telomelysin MOI 10, H1299, 24 hours
Description: (§1) Cells were seeded in 6-well plate (2 mL/well, 2×10^5 cells/well), and incubated with 5% CO2 at 37° C.
(§2) Viruses were diluted at a MOI of 10. Medium in each well was removed, 500 μL of diluted virus solution was added to each well of the plate. Plates were incubated with 5% CO2 at 37° C. for 2 hours with gently shaking every 15 minutes. Medium was aspirated, washed with PBS twice, and replaced with fresh medium containing 2% FCS and serially diluted CDV. Cells were incubated with 5% CO2 at 37° C. for 24 hours after infection.
(§3) Cells were detached with Trypsin-EDTA, and collected by centrifuging. Total DNA was extracted using QIAamp™ DNA Mini Kit according to manufacture's instructions with some modifications: addition of 20 μL of RNaseA in each sample when adding ProK. DNA was eluted by 50˜100 μL of D. W.
(§4) Concentration of DNA was determined by measuring O.D.260. Each DNA samples was diluted by D. W. at a concentration of 5 ng/μL.
(§5) Master-mix for E1A primer was prepared using LightCycler™ Faststart DNAMaster SYBR Green™ according to Table 1. Standard DNA was prepared by serially 10 times dilution of pCRII-E1A plasmid (1×10^9, 1×10^8, 1×10^7, 1×10^6, 1×10^5, 1×10^4, and 1×10^3 copies/μL). 2 μL of Sample or Standard DNA was and 18 μL of Master mix were added into capillaries (total volume was 20 μL per capillary).
(§6) Q-PCR was performed according to the program of Table 2 (LightCycler quicksystem 350S). Results obtained here were analyzed using LightCycler softwere.

[1] = test system: Wild-type adenovirus (OBP-202); assay: Real-time quantitative PCR, viral E1A copy number, wild-type adenovirus in H1299 cells; type: cell-based; details: for E1A copy number, % (relative to 0 μM) / E1A copy number/ng DNA: Wt-Ad MOI 10, H1299, 24 hours
Description: as §1, §2, §3, §4, §5, §6

TelomeScan (OBP-401) = assay: Real-time quantitative PCR, viral E1A copy number, TelomeScan in H1299 cells; type: cell-based, adenovirus; details: for E1A copy number, % (relative to 0 uM) / E1A copy number/ng DNA: TelomeScan MOI 10, H1299, 24 hours
Description: as §1, §2, §3, §4, §5, §6

[2] = XTT cell viability assay, CDV alone, H1299 cells; type: cell-based; details: human; H1299 cells, XTT; read-out: CC50, CDV concentration that reduce the relative cell viability to 50%
Description: (§7) Cells frozen in liquid nitrogen were thawed in water bath at 37° C., seeded at T25 flask, and cultured at 70-90% sub-confluent monolayer. Cells were detached with trypsin, and prepared suspension at a concentration of 1.0×10^4 cells/ml.
(§8) Cells were seeded in 96 well-plate (100 μL/well, 1000 cells/well), then cultured with 5% CO2 at 37° C.
(§9) Viruses were diluted at MOI of 1 (OBP-301, OBP-202) in H1299 and 5 in A549 (PFU/cell). Medium in each well was removed, 150 μL of diluted virus solution was added to each well of the plate. 2 hours later, medium was aspirated and replaced with fresh medium containing 2% FCS and serially diluted CDV. Cells were incubated with 5% CO2 at 37° C. for 7 days after infection.
(§10) Viruses were diluted at MOI of 0.1 (OBP-401) or 10 (ONYX-015) in H1299. Medium in each well was removed, 50 μL of diluted virus solution was added to each well of the plate. 2 hours later, medium was aspirated and replaced with fresh medium containing 2% FCS and serially diluted CDV. Cells were incubated with 5% CO2 at 37° C. for 7 days after infection.
(§11) 100 μL of PBS, 50 μL of XTT labeling reagent, and 1 μL of ion coupling reagent per well of plate were mixed.
(§12) Medium in each well of plate was removed, and 150 μL of mixture prepared above was added to each well. Plate was incubated with 5% CO2 at 37° C. for 4 hours, and then calculated absorbance at 450 nm and 690 nm. Protection was determined by the formula below: […]

H1299 cells = assay: XTT cell viability assay, CDV alone, H1299 cells; type: cell-based; details: for Relative cell viability Ave. / Relative cell viability: H1299, no virus, 7 days; for Relative cell viability: single wells, dihydrate
Description: as §7, §8, §9, §10, §11, §12

**Q.** Which results are given for `Nc1ccn(C[C@@H](CO)OCP(=O)(O)O)c(=O)n1.O.O` [CDV, 1-[(S)-3-hydroxy-2-(phosphonomethoxy)propyl]cytosine dihydrate]?
**A.** E1A copy number, % (relative to 0 μM) (Telomelysin (OBP-301); CDV 0.16 μM): 97.60%; E1A copy number/ng DNA (Telomelysin (OBP-301); CDV 0.16 μM): 1.461E+08 copy number/ng DNA; E1A copy number, % (relative to 0 μM) (Telomelysin (OBP-301); CDV 0.8 μM): 98.93%; E1A copy number/ng DNA (Telomelysin (OBP-301); CDV 0.8 μM): 1.481E+08 copy number/ng DNA; E1A copy number, % (relative to 0 μM) (Telomelysin (OBP-301); CDV 4 μM): 91.32%; E1A copy number/ng DNA (Telomelysin (OBP-301); CDV 4 μM): 1.367E+08 copy number/ng DNA; E1A copy number, % (relative to 0 μM) (Telomelysin (OBP-301); CDV 20 μM): 47.07%; E1A copy number/ng DNA (Telomelysin (OBP-301); CDV 20 μM): 7.046E+07 copy number/ng DNA; E1A copy number, % (relative to 0 μM) (Telomelysin (OBP-301); CDV 100 μM): 9.99%; E1A copy number/ng DNA (Telomelysin (OBP-301); CDV 100 μM): 1.496E+07 copy number/ng DNA; EC50 (Telomelysin (OBP-301); NCI-H1299, H1299 cells, real-time quantitative PCR, read-out: EC50 (E1A), CDV concentration that reduces the relative E1A copy number of Telomelysin to 50%): 19.6 µM; Viral E1A copy number (Telomelysin (OBP-301); Telomelysin, H1299 cells, dose-dependent manner): reduced; E1A copy number, % (relative to 0 μM) ([1]; CDV 0.16 μM): 117.49%; E1A copy number/ng DNA ([1]; CDV 0.16 μM): 6.152E+07 copy number/ng DNA; E1A copy number, % (relative to 0 μM) ([1]; CDV 0.8 μM): 95.65%; E1A copy number/ng DNA ([1]; CDV 0.8 μM): 5.008E+07 copy number/ng DNA; E1A copy number, % (relative to 0 μM) ([1]; CDV 4 μM): 74.69%; E1A copy number/ng DNA ([1]; CDV 4 μM): 3.911E+07 copy number/ng DNA; E1A copy number, % (relative to 0 μM) ([1]; CDV 20 μM): 32.83%; E1A copy number/ng DNA ([1]; CDV 20 μM): 1.719E+07 copy number/ng DNA; E1A copy number, % (relative to 0 μM) ([1]; CDV 100 μM): 4.79%; E1A copy number/ng DNA ([1]; CDV 100 μM): 2.509E+06 copy number/ng DNA; Viral E1A copy number ([1]; wild-type AdV, H1299 cells, dose-dependent manner): reduced; E1A copy number, % (relative to 0 uM) (TelomeScan (OBP-401); CDV 0.16 uM): 103.48%; E1A copy number/ng DNA (TelomeScan (OBP-401); CDV 0.16 uM): 2.350E+08 copy number/ng DNA; E1A copy number, % (relative to 0 uM) (TelomeScan (OBP-401); CDV 0.8 uM): 83.22%; E1A copy number/ng DNA (TelomeScan (OBP-401); CDV 0.8 uM): 1.890E+08 copy number/ng DNA; E1A copy number, % (relative to 0 uM) (TelomeScan (OBP-401); CDV 4 uM): 100.62%; E1A copy number/ng DNA (TelomeScan (OBP-401); CDV 4 uM): 2.285E+08 copy number/ng DNA; E1A copy number, % (relative to 0 uM) (TelomeScan (OBP-401); CDV 20 uM): 70.19%; E1A copy number/ng DNA (TelomeScan (OBP-401); CDV 20 uM): 1.594E+08 copy number/ng DNA; E1A copy number, % (relative to 0 uM) (TelomeScan (OBP-401); CDV 100 uM): 21.83%; E1A copy number/ng DNA (TelomeScan (OBP-401); CDV 100 uM): 4.957E+07 copy number/ng DNA; Viral E1A copy number (TelomeScan (OBP-401); TelomeScan, H1299 cells, dose-dependent manner): reduced; CC50 at 7 days [2]: 146 µM; Relative cell viability Ave. (H1299 cells; CDV 0.01 μM, Table 4A): 1.014; Relative cell viability Ave. (H1299 cells; CDV 0.01 μM, Table 4B): 0.992; Relative cell viability (H1299 cells; CDV 0.01 μM, Table 4A): 0.978 and 1.068 and 1.002 and 1.009; Relative cell viability (H1299 cells; CDV 0.01 μM, Table 4B): 0.970 and 1.010 and 0.999 and 0.990; Relative cell viability Ave. (H1299 cells; CDV 0.06 μM, Table 4A): 0.996; Relative cell viability Ave. (H1299 cells; CDV 0.06 μM, Table 4B): 0.985; Relative cell viability (H1299 cells; CDV 0.06 μM, Table 4A): 0.945 and 1.070 and 0.997 and 0.972; Relative cell viability (H1299 cells; CDV 0.06 μM, Table 4B): 0.950 and 1.019 and 0.990 and 0.981; Relative cell viability Ave. (H1299 cells; CDV 0.32 μM, Table 3A): 1.074; Relative cell viability Ave. (H1299 cells; CDV 0.32 μM, Table 4A): 1.020; Relative cell viability (H1299 cells; CDV 0.32 μM, Table 3A): 0.963 and 1.073 and 1.171 and 1.087; Relative cell viability (H1299 cells; CDV 0.32 μM, Table 4A): 0.977 and 1.068 and 1.001 and 1.032; Relative cell viability Ave. (H1299 cells; CDV 1.6 μM, Table 3A): 1.017; Relative cell viability Ave. (H1299 cells; CDV 1.6 μM, Table 4A): 1.030; Relative cell viability Ave. (H1299 cells; CDV 1.6 μM, Table 4B): 0.990; Relative cell viability (H1299 cells; CDV 1.6 μM, Table 3A): 0.970 and 1.043 and 1.110 and 0.945; Relative cell viability (H1299 cells; CDV 1.6 μM, Table 4A): 0.981 and 1.061 and 1.044 and 1.033; Relative cell viability (H1299 cells; CDV 1.6 μM, Table 4B): 0.984 and 0.996 and 0.983 and 0.997; Relative cell viability Ave. (H1299 cells; CDV 8 μM, Table 3A): 1.010; Relative cell viability Ave. (H1299 cells; CDV 8 μM, Table 4A): 0.989; Relative cell viability Ave. (H1299 cells; CDV 8 μM, Table 4B): 0.925; Relative cell viability (H1299 cells; CDV 8 μM, Table 3A): 0.912 and 1.037 and 1.043 and 1.047; Relative cell viability (H1299 cells; CDV 8 μM, Table 4A): 0.918 and 1.022 and 1.016 and 0.999; Relative cell viability (H1299 cells; CDV 8 μM, Table 4B): 0.913 and 0.935 and 0.928 and 0.923; Relative cell viability Ave. (H1299 cells; CDV 40 μM, Table 3A): 0.923; Relative cell viability Ave. (H1299 cells; CDV 40 μM, Table 4A): 0.695; Relative cell viability Ave. (H1299 cells; CDV 40 μM, Table 4B): 0.600; Relative cell viability (H1299 cells; CDV 40 μM, Table 3A): 1.004 and 0.919 and 0.876 and 0.894; Relative cell viability (H1299 cells; CDV 40 μM, Table 4A): 0.709 and 0.677 and 0.686 and 0.706; Relative cell viability (H1299 cells; CDV 40 μM, Table 4B): 0.588 and 0.574 and 0.628 and 0.609; Relative cell viability Ave. (H1299 cells; CDV 200 μM, Table 3A): 0.398; Relative cell viability Ave. (H1299 cells; CDV 200 μM, Table 4A): 0.199; Relative cell viability Ave. (H1299 cells; CDV 200 μM, Table 4B): 0.136; Relative cell viability (H1299 cells; CDV 200 μM, Table 3A): 0.401 and 0.420 and 0.362 and 0.411; Relative cell viability (H1299 cells; CDV 200 μM, Table 4A): 0.221 and 0.203 and 0.185 and 0.186; Relative cell viability (H1299 cells; CDV 200 μM, Table 4B): 0.135 and 0.128 and 0.145 and 0.134; Relative cell viability Ave. (H1299 cells; CDV 1000 μM, Table 4A): 0.037; Relative cell viability Ave. (H1299 cells; CDV 1000 μM, Table 4B): 0.015; Relative cell viability (H1299 cells; CDV 1000 μM, Table 4A): 0.033 and 0.043 and 0.036 and 0.037; Relative cell viability (H1299 cells; CDV 1000 μM, Table 4B): 0.021 and 0.013 and 0.012 and 0.015; toxicity of CDV itself (H1299 cells; H1299 cells, high concentrations): toxic

Reference: patent US20090181931A1, “ANTIVIRAL ACTIVITY OF CIDOFOVIR AGAINST ONCOLYTIC VIRUSES” (priority 2008, published 2009)
